In the Kinase Knowledgebase extract (Sharma et al. 2016):

Biological target: ROCK2 (human) (UniProt O75116)
Experiment: Enzyme Assay

Sequence of ROCK2 (human) (O75116 whole entry, looked up): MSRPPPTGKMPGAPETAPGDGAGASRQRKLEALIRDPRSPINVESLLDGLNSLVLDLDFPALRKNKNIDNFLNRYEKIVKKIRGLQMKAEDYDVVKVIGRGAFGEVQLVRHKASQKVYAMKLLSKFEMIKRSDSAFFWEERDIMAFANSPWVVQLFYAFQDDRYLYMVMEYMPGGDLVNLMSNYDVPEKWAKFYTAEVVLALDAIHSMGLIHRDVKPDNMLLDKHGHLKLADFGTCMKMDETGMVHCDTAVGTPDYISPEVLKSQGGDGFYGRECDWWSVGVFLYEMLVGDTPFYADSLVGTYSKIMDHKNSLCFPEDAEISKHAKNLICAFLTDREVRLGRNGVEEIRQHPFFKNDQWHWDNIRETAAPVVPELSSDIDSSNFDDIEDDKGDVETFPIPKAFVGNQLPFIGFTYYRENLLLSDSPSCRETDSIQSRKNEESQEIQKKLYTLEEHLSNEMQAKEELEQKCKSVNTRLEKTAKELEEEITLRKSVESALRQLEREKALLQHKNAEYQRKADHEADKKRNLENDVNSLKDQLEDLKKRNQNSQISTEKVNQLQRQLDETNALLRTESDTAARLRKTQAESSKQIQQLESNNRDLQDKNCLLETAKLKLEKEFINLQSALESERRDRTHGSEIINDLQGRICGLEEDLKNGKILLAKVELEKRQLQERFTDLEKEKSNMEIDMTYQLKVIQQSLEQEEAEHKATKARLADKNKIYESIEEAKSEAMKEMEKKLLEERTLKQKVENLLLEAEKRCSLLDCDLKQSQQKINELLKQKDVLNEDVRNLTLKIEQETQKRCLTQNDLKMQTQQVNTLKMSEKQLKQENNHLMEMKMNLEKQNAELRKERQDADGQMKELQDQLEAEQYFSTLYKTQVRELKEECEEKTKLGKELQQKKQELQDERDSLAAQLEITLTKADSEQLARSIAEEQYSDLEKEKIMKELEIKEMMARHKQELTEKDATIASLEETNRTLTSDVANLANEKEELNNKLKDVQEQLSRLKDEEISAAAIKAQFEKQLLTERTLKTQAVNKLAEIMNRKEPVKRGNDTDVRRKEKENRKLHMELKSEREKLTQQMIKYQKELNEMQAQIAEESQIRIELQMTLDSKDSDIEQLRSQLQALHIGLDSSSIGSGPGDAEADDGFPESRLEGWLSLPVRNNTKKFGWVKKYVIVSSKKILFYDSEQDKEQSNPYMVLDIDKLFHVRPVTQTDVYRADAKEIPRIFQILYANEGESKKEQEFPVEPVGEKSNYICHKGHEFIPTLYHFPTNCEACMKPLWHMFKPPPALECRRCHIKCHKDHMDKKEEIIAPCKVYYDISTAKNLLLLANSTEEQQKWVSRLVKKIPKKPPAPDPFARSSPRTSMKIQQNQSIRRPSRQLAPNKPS

IC50, < 100 nM:
NCc1ccc(C(=O)Nc2ccncc2F)cc1-c1cccc(C(=O)Nc2ccc(NC3CCOC3=O)cc2)c1 (stereo unspecified)
NCc1ccc(C(=O)Nc2ccncc2F)cc1-c1cccc(NC(=O)c2ccc(NC3CCOC3=O)cc2)c1 (stereo unspecified)
CN(c1ccc(NC(=O)c2cccc(-c3cc(C(=O)Nc4ccncc4F)ccc3CN)c2)cc1)C1CCOC1=O (stereo unspecified)
CC1(C)COC(=O)C1Sc1ccc(NC(=O)c2cccc(-c3cc(C(=O)Nc4ccncc4F)ccc3CN)c2)cc1 (stereo unspecified)
NCc1ccc(C(=O)Nc2ccncc2F)cc1-c1cccc(C(=O)Nc2ccc(SC3CCOC3=O)cc2F)c1 (stereo unspecified)
NCc1ccc(C(=O)Nc2ccncc2F)cc1-c1cccc(C(=O)Nc2cccc(SC3CCOC3=O)c2)c1 (stereo unspecified)
Cc1cc(NC2CCOC2=O)ccc1NC(=O)c1cccc(-c2cc(C(=O)Nc3ccncc3F)ccc2CN)c1 (stereo unspecified)
NCc1ccc(C(=O)Nc2ccncc2F)cc1-c1cccc(C(=O)Nc2ccc(OC3CCOC3=O)cc2)c1 (stereo unspecified)
NCc1ccc(C(=O)Nc2ccncc2F)cc1-c1cccc(NC(=O)c2ccc(SC3CCOC3=O)cc2)c1 (stereo unspecified)
NCc1ccc(C(=O)Nc2ccncc2)cc1-c1cccc(NC(=O)c2ccc(SC3CCOC3=O)cc2)c1 (stereo unspecified)
NCc1ccc(C(=O)Nc2ccncc2F)cc1-c1cccc(C(=O)Nc2ccc(SC3COC(=O)C3)cc2)c1 (stereo unspecified)
NCc1ccc(C(=O)Nc2ccncc2F)cc1-c1cccc(C(=O)Nc2ccc(CNC3CCOC3=O)cc2)c1 (stereo unspecified)
CC1CC(Sc2ccc(NC(=O)c3cccc(-c4cc(C(=O)Nc5ccncc5F)ccc4CN)c3)cc2)C(=O)O1 (stereo unspecified)
NCc1ccc(C(=O)Nc2ccncc2F)cc1-c1cccc(C(=O)Nc2ccc(SCC3CCOC3=O)cc2)c1 (stereo unspecified)
NCc1ccc(C(=O)Nc2ccncc2F)cc1-c1cccc(C(=O)Nc2ccc(SC3CCOC3=O)cc2)c1 (stereo unspecified)
NCc1ccc(C(=O)Nc2ccncc2F)cc1-c1cccc(C(=O)Nc2ncc(NC3CCOC3=O)s2)c1 (stereo unspecified)
